pKi: −log10 of the molar value. “Also recorded” adds a separate entry of the source.
What was measured:
[1] = system: P198 human pancreatic cancer cells; assay: Cell population growth; type: cell-based; conditions: 1% O2 vs normoxia
Method: P493 human lymphoma B cells were maintained in RPMI 1640 with 10% fetal bovine serum (FBS) and 1% penicillin-streptomycin. P198 human pancreatic cancer cells; RCC4, RCC4-VHL human renal carcinoma cells; MCF-7 and MDA-MB-453 breast cancer cells were maintained in high glucose (4.5 mg/ml) DMEM with 10% FBS and 1% penicillin-streptomycin. Non-hypoxic cells (20% O2) were maintained at 37° C. in a 5% CO2, 95% in an air incubator. Hypoxic cells (1% O2) were maintained in a controlled atmosphere chamber (PLAS-LABS, Lansing, Mich.) with a gas mixture containing 1% O2, 5% CO2, and 94% N2 at 37° C. for the indicated time. Bright live cells were counted daily in a hemacytometer using trypan blue dye to exclude dead cells. All cells were grown at a concentration of 10^5 cells/ml. All drugs treatment began at day 0.
siRNAs targeting human LDHA (ON-TARGETplus SMARTpool) were purchased from Dharmacon Research Inc. Targeting sequences for LDHA were a pool of the following four target sequences: sequence 1, […]; sequence 2, […]; sequence 3, […]; sequence 4, […]. Accordingly, one of skill in the art would recognize the siRNA sequences corresponding to these targets. For P493 human lymphoma B cells, transfection of siRNAs was performed using an Amaxa Nucleotransfection device according to the manufacturer's instructions. […]

P493 cells [2] = assay: NADH/NAD+ ratio colorimetric assay; type: cell-based, human; conditions: 9 μM FX11, 24 hours
Method: The NADH/NAD^+ ratios were assayed using EnzyChrom™ NADH/NAD^+ colorimetric Assay Kit, from BioAssay Systems. This assay is based on an enzyme-catalyzed kinetic reaction where a tetrazolium dye 3-[4,5-dimethylthiazol-2-yl]-2,5-diphenyltetrazolium bromide (MTT) is reduced by NADH in the presence of phenazine methosulfate (PMS). The intensity of the reduced product color, measured at 565 nm, is proportionate to the NADH/NAD^+ concentration in the sample. […] After washing with cold PBS, cells were homogenized in 100 μl of NAD^+ or NADH extraction buffer. Following heat extract at 60° C. for 5 minutes, the assay was performed according to the manufacturer's instructions.

P493 cells [3] = assay: Oxygen consumption, Clark-type oxygen electrode; type: cell-based, human; conditions: FX11 treatment
Method: Oxygen consumption was measured using a Clark-type oxygen electrode (Oxytherm System, Hansatech Instruments Ltd). 5×10^6 cells in 1 ml medium were placed in the chamber above a membrane which is permeable to oxygen. Oxygen diffuses through the membrane and is reduced at the cathode surface so that a current flows through the circuit which is completed by a thin layer of KCl solution. The current which is generated bears a direct, stoichiometric relationship to the oxygen reduced, and is converted to a digital signal. Determinations were done in triplicate, and the entire experiment was done twice.

[4] = system: P493 human lymphoma B cells; assay: Human P493 B cell lymphoma xenograft; type: in vivo, SCID mice
Method: The animal studies were performed according to the protocols approved by the Animal Care and Use Committee at Johns Hopkins University. In order to generate tumorigenesis study in xenograft model, 2.0×10^7 P493 human lymphoma B cells or 5×10^6 human pancreatic cancer cells were injected subcutaneously into male SCID mice (NCI) or athymic Hsd: RH-Foxn1nu mice (Harlan), respectively, as previously described (Feldmann et al., 2007; Gao et al., 2009; Gao et al., 2007). When the tumor volume reached 200 mm^3, groups of 5 mice were injected with control 2% DMSO or 42 μg FX11 and/or 100 μg FK866. The tumor volumes were measured using a digital caliper after 4, 7 and 10 days of treatment. Tumor volumes were calculated using the following formula: [length (mm)×width (mm)×width (mm)×0.52]. The entire experiment was repeated seven times.

GAPDH = GAPDH (Homo sapiens, UniProt P04406); assay: GAPDH activity and Ki; type: biochemical
Chain of GAPDH (P04406 whole entry): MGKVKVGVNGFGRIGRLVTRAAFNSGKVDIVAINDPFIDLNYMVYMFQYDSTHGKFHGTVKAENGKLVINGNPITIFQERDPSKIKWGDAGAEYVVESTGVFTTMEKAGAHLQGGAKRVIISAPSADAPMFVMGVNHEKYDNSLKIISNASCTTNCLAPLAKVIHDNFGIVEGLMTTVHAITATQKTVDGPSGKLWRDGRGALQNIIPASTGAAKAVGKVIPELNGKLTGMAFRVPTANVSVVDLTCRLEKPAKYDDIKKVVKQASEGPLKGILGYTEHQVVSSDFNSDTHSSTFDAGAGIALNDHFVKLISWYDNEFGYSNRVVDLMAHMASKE
Method: The reaction velocity of purified human LDHA or GAPDH was determined by a decrease or increase in absorbance at 340 nm of NADH, respectively. […] The GADPH activity was assessed using the protocol described in Worthington Enzyme Manual: http://www.worthington-biochem.com/GAPD/assay.html with varying concentrations of NAD^+. Ki values were determined from double-reciprocal plots by linear regression analysis using SigmaPlot Enzyme Kinetic software.

P493 cells [5] = assay: ATP levels, luciferin-luciferase-based assay; type: cell-based, human; conditions: 9 μM FX11 or 0.5 nM FK866, 20 hours
Method: P493 cells were treated with 9 μM FX11 or 0.5 nM FK866 for 20 hours and counted. ATP levels were determined by luciferin-luciferase-based assay (Promega) on aliquots containing equal number of cells according to standard protocol.

c-Myc = assay: Western blot of c-Myc; type: cell-based, human; conditions: 30 μM FX11, 24 hours
P493 cells [6] = assay: Lactate production and glucose utilization, ABL700 Radiometer analyzer; type: cell-based, human
Method: Lactate production was measured by the ABL700 Radiometer analyzer according to the manufacturer's instructions. 10^5 cells were grown at 37° C. in a 5% CO2, 95% air incubator and treated with 9 μM FX11 or 0.5 nM FK866 for 24 hours.

P493 cells [7] = assay: Annexin V / 7-AAD cell death assay; type: cell-based, human; conditions: 24 hours of FX11 treatment
LDH = LDH (Homo sapiens, UniProt P00338); assay: LDH activity, decrease in absorbance at 340 nm of NADH; type: biochemical
Method: In other studies, pyruvate and NADH were used as the substrates to test the inhibition of LDH by FX11. […] To further document the selective binding of FX11 versus E to LDHA, affinity chromatography was performed with P493 cell lysate using FX11 or E immobilized on Sepharose beads. […] GAPDH is another pivotal glycolytic enzyme that converts NAD^+ to NADH. The question of whether FX11 could inhibit its NAD^+-dependent conversion of glyceraldehyde-3-phosphate to bis-phosphoglycerate was addressed.

P493 cells [8] = assay: Mitochondrial membrane potential by JC-1 flow cytometry; type: cell-based, human; conditions: 9 μM FX11 or/and FK866, 24 hours
Text: The lipophilic cation dye (5,5′,6,6′-tetrachloro-1,1′,3,3′-tetraethylbenzimidazolcarbocyanine iodide, JC-1) (Invitrogen) was used to detect the loss of the mitochondrial membrane potential. The negative charge established by the intact mitochondrial membrane potential lets the lipophilic dye stain the mitochondria bright red which emits in channel 2 (FL2). When the mitochondrial membrane potential collapses, JC-1 remains in the cytoplasm in a green fluorescent monomeric emission in channel 1 (FL1). JC-1 reversibly changes its color from green to orange as membrane potentials increase (over values of 80-100 mV). 10^5 cells/ml were treated with 9 μM FX11 or/and FK866 for 24 hours. Stained cells were analyzed in FACScan flow cytometers (BD Bioscience).

[9] = system: human pancreatic cell line P10; assay: Cell growth; type: cell-based
[10] = system: human glioblastoma U-87-MG cells; assay: Cell growth; type: cell-based

CCCc1c(O)c(O)c(C(=O)O)c2cc(Cc3ccccc3)c(C)cc12 [FX11, 2,3-dihydroxy-6-methyl-7-(phenylmethyl)-4-propylnaphthalene-1-carboxylic acid]
effect of hypoxia on inhibition of P198 cells by FX11 [1]: sensitized | NADH/NAD+ ratio (P493 cells [2]): increase | oxygen consumption (P493 cells [3]): increased oxygen consumption | tumor growth of palpable P493 xenografts ([4]; daily IP, 42 μg FX11 or 0.8 mg doxycycline, vs vehicle 2% DMSO): remarkable inhibition of tumor growth | tumor growth of established P493 lymphoma xenografts ([4]; treatment from 200 mm^3, daily IP 42 μg FX11 and/or 100 μg FK866, ten days): cytostatic, but significant effect; also recorded: effectively inhibited | GAPDH activity (GAPDH; 74 μM): not inhibited | pKi (GAPDH; GAPDH, Michaelis-Menten kinetics, estimated): < 3.52 | ATP levels (P493 cells [5]): decrease in ATP levels | c-Myc levels (c-Myc): does not affect c-Myc levels | cellular production of lactate (P493 cells [6]; 9 μM FX11, 24 hours): significantly diminished | glucose utilization (P493 cells [6]; FX11 treatment for 24 hours): reduction of glucose utilization | cell death (7-AAD and annexin V labeling) (P493 cells [7]): increased | slope of decrease in absorbance at 340 nm (LDH; 6 μM FX11, −0.084 without FX11): −0.029 | LDH activity (LDH; 6 μM, pyruvate and NADH as substrates): completely abrogated | concentration inhibiting LDH activity in the conversion of lactate to pyruvate (LDH; lactate to pyruvate direction): 34 µM | mitochondrial membrane potential (P493 cells [8]): decreased | growth inhibition [9]: dose-dependent manner | growth inhibition [10]: dose-dependent manner
